# Activity calls are given as the source filed them.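 Rule for the calls: active = caspase luminescence falls with dose and the half-maximal concentration AC50 from the fitted curve is at or below a set limit; inconclusive = flat fit at 30 to 70% signal loss, or invalid fit; inactive = AC50 above the limit, or signal rises instead.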
# Tested on: INS-1E cytokine-induced caspase-3/7, Caspase-Glo luminescence, 48 h
# Assay: inhibitors of cytokine-induced caspase-3/7 activity, dose response, orthogonal assay for beta-cell apoptosis protection project, INS-1E rat cells, luminescence (AID 463206)
row,SMILES,AC50
1,COc1ccc(C)cc1Nc1n[n+](-c2ccccc2)c(-c2ccc(N(C)C)cc2)s1,> 26 µM (inactive)
2,Cc1c(C(=O)N/N=C/c2c(O)ccc3ccccc23)nnn1-c1nonc1N,> 26 µM (inactive)
3,COc1ccc(OC)c(NC(=O)CSc2nnc(-c3cccnc3)s2)c1,> 26 µM (inactive)
4,O=C(N/N=C/c1cc(Br)ccc1OC(=O)c1ccc(Br)cc1)c1ccncc1,> 26 µM (inactive)
5,COc1ccc(NC(=O)/C(Cl)=C(/Cl)S(=O)Cc2ccccc2)cn1 (centres undefined),> 26 µM (inactive)
6,CCN1CCN(c2c(Cl)cccc2NC(=O)c2ccc([N+](=O)[O-])o2)CC1,> 26 µM (inactive)
7,Cc1[nH]n(-c2ccccc2)c(=O)c1/C=N\NC(=O)C1COc2ccccc2O1 (centres undefined),> 26 µM (inactive)
8,O=C(OCn1ncc(Cl)c(Cl)c1=O)c1ccccc1Cl,> 26 µM (inactive)
9,Cc1ccc(N=Nc2c(O)ccc3n[nH]nc23)cc1,> 26 µM (inactive)
10,Cc1sc2ncnc(NCc3cccs3)c2c1C,> 26 µM (inactive)
11,Cc1cccc(N2C(=S)N=C(Nc3c(C)cccc3C)C23CCOC(C)(C)C3)c1 (centres undefined),> 26 µM (inactive)
12,Oc1c(Br)cc(Br)cc1/C=N/Nc1ccc(Cl)nn1,> 26 µM (inactive)
13,On1onc2c3cc(-c4ccccc4)nc3ccc21,> 26 µM (inactive)
14,Cc1ccc(Nc2c(-c3ccccn3)nc3cccc(C)n23)cc1,> 26 µM (inactive)
15,O=C(OCn1ncc(Br)c(Br)c1=O)c1ccc(F)cc1,> 26 µM (inactive)
16,CCOc1ccc(S(=O)(=O)NCc2ccncc2)cc1,> 26 µM (inactive)
17,c1ccc(/N=C2\N=C(Nc3ccccn3)c3ccccc32)nc1,> 26 µM (inactive)
18,Cc1ccc(-n2c(-c3ccccc3)c[n+]3c2CCc2ccccc2-3)c(C)c1,> 26 µM (inactive)
19,Cc1ccc(NC(=O)Cn2c(O)c(N=NC(=O)c3cc4ccccc4cc3O)c3ccccc32)cc1,> 26 µM (inactive)
20,C=CCn1c(SCC(=O)c2[nH]c(C)c(C(=O)OCC)c2C)nc2scc(-c3ccc(OC)c(OC)c3)c2c1=O,> 12 µM (inactive)

row,SMILES,AC50
1,Cc1ccc(S(=O)(=O)/N=C2\C(=O)c3ccccc3C([O-])=C2n2cc[n+](CCC(C)C)c2)cc1,> 26 µM (inactive)
2,CCOc1ccc(N=Cc2c(C)[nH]n(-c3nc4ccccc4[nH]3)c2=O)cc1,> 26 µM (inactive)
3,Cc1ccc(C)c(S(=O)(=O)Nc2ccc(O)c3ccccc23)c1,> 26 µM (inactive)
4,O=C1N/C(=N/N=C/c2ccccc2O)SC1Cc1ccc(F)cc1 (centres undefined),> 26 µM (inactive)
5,CCN(CC)CCNc1ncnc2c1sc1nc(N3CCOCC3)c3c(c12)CC(C)(C)SC3,23.6 µM
6,CCc1ccc(Nc2n[n+](-c3ccccc3)c(-c3c(Cl)cccc3Cl)s2)cc1,> 26 µM (inactive)
7,CCCCCCCCCCCCCCCC[N+](C)(C)C,> 26 µM (inactive)
8,CCCCCCSc1cc(-c2nc3ccc(C)cn3c2NCCCC)ccc1OC,> 26 µM (inactive)
9,CCCCCCn1ccc(=N)cc1,> 26 µM (inactive)
10,CCCCCCOc1ccc(CN2CCN(C)CC2)cc1,> 26 µM (inactive)
11,O=C(NCC1COc2ccccc2O1)c1cccc(S(=O)(=O)NCc2ccccc2)c1 (centres undefined),> 12 µM (inactive)
12,O=C(NNc1ccccc1Br)C(O)(c1cccc(C(F)(F)F)c1)c1cccc(C(F)(F)F)c1,> 26 µM (inactive)
13,CC1(C)CC(N2CCN(c3ccccc3)CC2)=CC(=[N+]2CCCC2)C1,> 26 µM (inactive)
14,O=C(C#Cc1ccccc1)c1ccco1,> 26 µM (inactive)
15,CC(=O)CSc1ccc(-c2nc3ccccc3[nH]2)cn1,> 26 µM (inactive)
16,Cc1sc2ncnc(N/N=C/c3ccccc3O)c2c1C,> 26 µM (inactive)
17,CC(NC(=O)c1cc(COc2ccc3ncccc3c2)on1)c1ccc(F)cc1 (centres undefined),> 26 µM (inactive)
18,CC(CC(=O)N1CCN(c2cccc(Cl)c2)CC1)S(=O)(=O)c1ccc2c(c1)NC(=O)CO2 (centres undefined),> 26 µM (inactive)
19,N#CCC(=O)N/N=C/c1cc(-c2ccccc2)n(-c2ccc(Cl)cc2)c1-c1ccccc1,> 26 µM (inactive)
